Reference: PubChem BioAssay AID328 (DTP/NCI, 2004)
Inconclusive results and toxic doses are left out. The calls were made as follows: active = survival T/C of 150% or more; inactive = T/C below 125% in these data.

System: BDF1 mice, P388 leukemia ip, median survival T/C
Assay: NCI In Vivo Anticancer Drug Screen. Data for tumor model P388 Leukemia (intraperitoneal) in B6D2F1 (BDF1) mice
Details: endpoint: median survival time, higher = longer survival
In short: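 Vehicle-dosed animals serve as the reference; survival of compound-dosed, tumour-implanted mice is divided by it.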

[1] = dose: 100.0 mg/kg/injection, schedule: Q04DX003 (ip), vehicle: Klucel (hydroxypropylcellulose) (HPC)
[2] = dose: 200.0 mg/kg/injection, schedule: Q04DX003 (ip), vehicle: Klucel (hydroxypropylcellulose) (HPC)
[3] = dose: 400.0 mg/kg/injection, schedule: Q04DX003 (ip), vehicle: Klucel (hydroxypropylcellulose) (HPC)
[4] = dose: 100.0 mg/kg/injection, schedule: Q01DX009 (ip), vehicle: saline with Tween-80
[5] = dose: 200.0 mg/kg/injection, schedule: Q01DX009 (ip), vehicle: saline with Tween-80
[6] = dose: 100.0 mg/kg/injection, schedule: Q04DX003 (ip), vehicle: saline with Tween-80
[7] = dose: 200.0 mg/kg/injection, schedule: Q04DX003 (ip), vehicle: saline with Tween-80
[8] = dose: 400.0 mg/kg/injection, schedule: Q04DX003 (ip), vehicle: saline with Tween-80

Measured: T/C

CCCCCc1ccc2oc(=O)c3ccc(C)cc3c2c1O
inactive: dose: 1.5 mg/kg/injection, schedule: Q01DX009 (ip), vehicle: Klucel (hydroxypropylcellulose) (HPC) 95 % of control | dose: 3.0 mg/kg/injection, schedule: Q01DX009 (ip), vehicle: Klucel (hydroxypropylcellulose) (HPC) 104 % of control | dose: 6.0 mg/kg/injection, schedule: Q01DX009 (ip), vehicle: Klucel (hydroxypropylcellulose) (HPC) 104 % of control | dose: 6.25 mg/kg/injection, schedule: Q01DX009 (ip), vehicle: Klucel (hydroxypropylcellulose) (HPC) 92 % of control | [1] 100 % of control | [2] 100 % of control | [3] 95 % of control

CCN(C(=O)C(F)(F)F)C(C)(C)C(SSSC(c1ccc(Cl)cc1)C(C)(C)N(CC)C(=O)C(F)(F)F)c1ccc(Cl)cc1 (centres undefined)
inactive: dose: 22.0 mg/kg/injection, schedule: Q01DX009 (ip), vehicle: Klucel (hydroxypropylcellulose) (HPC) 115 % of control | dose: 33.0 mg/kg/injection, schedule: Q01DX009 (ip), vehicle: Klucel (hydroxypropylcellulose) (HPC) 115 % of control | dose: 50.0 mg/kg/injection, schedule: Q01DX009 (ip), vehicle: Klucel (hydroxypropylcellulose) (HPC) 120 % of control | dose: 75.0 mg/kg/injection, schedule: Q01DX009 (ip), vehicle: Klucel (hydroxypropylcellulose) (HPC) 120 % of control | dose: 100.0 mg/kg/injection, schedule: Q01DX009 (ip), vehicle: Klucel (hydroxypropylcellulose) (HPC) 100 % of control | [1] 112 % of control | [2] 116 % of control

O=[N+]([O-])c1cc2no[n+]([O-])c2cc1N1CCN(c2cc3c(cc2[N+](=O)[O-])no[n+]3[O-])CC1
inactive: dose: 15.0 mg/kg/injection, schedule: Q01DX009 (ip), vehicle: saline with Tween-80 97 % of control | dose: 30.0 mg/kg/injection, schedule: Q01DX009 (ip), vehicle: saline with Tween-80 98 % of control | dose: 60.0 mg/kg/injection, schedule: Q01DX009 (ip), vehicle: saline with Tween-80 97 % of control

C=CC(C)(C(=O)O)C(C)C (centres undefined)
inactive: dose: 50.0 mg/kg/injection, schedule: Q01DX009 (ip), vehicle: saline with Tween-80 101 % of control | [4] 100 % of control | [5] 97 % of control

CCCCCCCCCCCCCCCC(=O)N(CC#N)CC#N
inactive: [1] 100 % of control | [2] 100 % of control | [3] 90 % of control

C=CCOP(OCC=C)OCC=C
inactive: dose: 25.0 mg/kg/injection, schedule: Q01DX009 (ip), vehicle: saline 90 % of control | dose: 25.0 mg/kg/injection, schedule: Q04DX003 (ip), vehicle: saline 95 % of control | dose: 50.0 mg/kg/injection, schedule: Q01DX009 (ip), vehicle: saline 90 % of control | dose: 100.0 mg/kg/injection, schedule: Q01DX009 (ip), vehicle: saline 104 % of control | dose: 100.0 mg/kg/injection, schedule: Q04DX003 (ip), vehicle: saline 100 % of control

N#C/C(=C/Cc1ccccc1)Nc1ccccc1
inactive: [4] 100 % of control | [6] 113 % of control | [5] 115 % of control | [7] 118 % of control | dose: 400.0 mg/kg/injection, schedule: Q01DX009 (ip), vehicle: saline with Tween-80 115 % of control | [8] 104 % of control

O=C1CCC2N1CCC1CCCCN12 (centres undefined)
inactive: dose: 6.25 mg/kg/injection, schedule: Q01DX009 (ip), vehicle: water 98 % of control | dose: 12.5 mg/kg/injection, schedule: Q01DX009 (ip), vehicle: water 100 % of control | dose: 25.0 mg/kg/injection, schedule: Q01DX009 (ip), vehicle: water 86 % of control | dose: 25.0 mg/kg/injection, schedule: Q04DX003 (ip), vehicle: water 107 % of control | dose: 50.0 mg/kg/injection, schedule: Q01DX009 (ip), vehicle: water 94 % of control | dose: 50.0 mg/kg/injection, schedule: Q04DX003 (ip), vehicle: water 118 % of control | dose: 100.0 mg/kg/injection, schedule: Q01DX009 (ip), vehicle: water 91 % of control | dose: 100.0 mg/kg/injection, schedule: Q04DX003 (ip), vehicle: water 107 % of control | dose: 200.0 mg/kg/injection, schedule: Q04DX003 (ip), vehicle: water 109 % of control

OC1C2CC3C1C3C2O (centres undefined)
inactive: [6] 86 % of control | [7] 100 % of control | [8] 104 % of control

CC(C)=CC(=O)CC(O)(C(F)(F)F)C(F)(F)Cl (centres undefined)
inactive: dose: 25.0 mg/kg/injection, schedule: Q04DX003 (ip), vehicle: saline with Tween-80 100 % of control | dose: 50.0 mg/kg/injection, schedule: Q04DX003 (ip), vehicle: saline with Tween-80 95 % of control | [6] 109 % of control
